Data reported in patent US20190274303A1, “USE OF A DIFLUORO-(2-HYDROXYPROPYL)PYRIDINE COMPOUND AS A FUNGICIDE FOR CONTROL OF PHYTOPATHOGENIC FUNGI OF BARLEY” (Dow AgroSciences LLC, priority 2016, published 2019).

Test system: Pyrenophora teres (PYRNTE)
Experiment: Field assessment of net blotch of barley
Type: in vivo
Conditions: for Percent Control PYRNTE: based on AUDPC, barley, field
Protocol: Field Assessment of Pyrenophora teres (PYRNTE) in Barley:
A fungicidal treatment containing Compound I was assessed against net blotch of barley (PYRNTE) in two separate field trials. In each trial, fungicidal treatments of Compound I were applied using two separate adjuvant systems. In the first system, an EC formulation of compound I was tank mixed with Agnique BP-420 (50%) at an active:adjuvant ratio of 1:2. The second adjuvant system was an SC formulation of Compound I tank mixed with Agnique BP-420 EW (38.5%) at an active:adjuvant ratio of 1:2 and Agnique FOH TDA-9 (30% w/w) applied at 0.33% V/V. Both the EC and SC formulation was sprayed on barley plants at rates of 25, 50, 75, 100, 150, 200 and 250 grams active ingredient per hectare (g ai/ha). In the first trial, fungicidal treatments of Compound I were applied at B39 (early curative, 1% infection on leaf 1) growth stage of winter barley (HORVW, Lomerit variety) under natural infection of PYRNTE. The treatment was part of an experimental trial designed as a randomized complete block with four replications. In the second trial, fungicidal treatments of Compound I were applied at B37 (protectant, 1% infection on leaf 4) growth stage of spring barley (HORVS, Scarlett variety) under natural infection of PYRNTE. The treatment was part of an experimental trial designed as a randomized complete block with four replications.
Disease severity was recorded as a percentage of visual diseased foliage on whole plot. Net blotch of barley infection was recorded following EPPO PP1/26 guideline prescriptions. Area under the disease progress curve (AUDPC) was calculated for each plot using the sets of recorded severity data. Relative AUDPC (% control based on AUDPC) was calculated as percent of the nontreated control.
In each case of the following Tables, the rating scale of percent control based on AUDPC is as follows: […]

## N#Cc1ccc(Oc2ccc(C(F)(F)C(O)(Cn3ncnc3S)c3ccc(F)cc3F)nc2)cc1 (stereo not drawn) [Compound I, 4-((6-(2-(2,4-difluorophenyl)-1,1-difluoro-2-hydroxy-3-(5-mercapto-1H-1,2,4-triazol-1-yl)propyl)pyridin-3-yl)oxy)benzonitrile]
25 g ai/ha, EC + Agnique BP-420
  Percent Control PYRNTE: D (1-25)
25 g ai/ha, SC + Agnique BP-420 EW and Agnique FOH TDA-9
  Percent Control PYRNTE: D (1-25)
50 g ai/ha, EC + Agnique BP-420
  Percent Control PYRNTE: D (1-25)
50 g ai/ha, SC + Agnique BP-420 EW and Agnique FOH TDA-9
  Percent Control PYRNTE: D (1-25)
75 g ai/ha, EC + Agnique BP-420
  Percent Control PYRNTE: D (1-25)
75 g ai/ha, SC + Agnique BP-420 EW and Agnique FOH TDA-9
  Percent Control PYRNTE: D (1-25)
100 g ai/ha, EC + Agnique BP-420
  Percent Control PYRNTE: D (1-25)
100 g ai/ha, SC + Agnique BP-420 EW and Agnique FOH TDA-9
  Percent Control PYRNTE: C (26-50)
150 g ai/ha, EC + Agnique BP-420
  Percent Control PYRNTE: C (26-50)
150 g ai/ha, SC + Agnique BP-420 EW and Agnique FOH TDA-9
  Percent Control PYRNTE: C (26-50)
200 g ai/ha, EC + Agnique BP-420
  Percent Control PYRNTE: C (26-50)
200 g ai/ha, SC + Agnique BP-420 EW and Agnique FOH TDA-9
  Percent Control PYRNTE: B (51-74)
250 g ai/ha, EC + Agnique BP-420
  Percent Control PYRNTE: B (51-74)
250 g ai/ha, SC + Agnique BP-420 EW and Agnique FOH TDA-9
  Percent Control PYRNTE: B (51-74)
Net blotch of barley, general statement
  fungicidal effect on Pyrenophora teres: significant fungicidal effect
